System: 521955-158-R2-J5-PDC complex spheroid viability
Assay: Anticancer human tumor 521955-158-R2-J5-PDC patient-derived pancreatic carcinoma cell line growth inhibition
Conditions: for IC50: curve of first compound; for viability, T/C: stronger effect = lower value; active means viability on the fitted dose curve at most 10% of control; inactive means the rest
Outline: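 Drug combinations with the LSD1 inhibitor iadademstat tested on tumor cells co-cultured as spheroids with endothelial cells and mesenchymal stem cells. Concentrations descended in half-log increments from clinical Cmax or 10 microM.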

[1] = second compound 0.1 µM, first compound 0.00316 µM
[2] = second compound 0.1 µM, first compound 0.01 µM
[3] = second compound 0.1 µM, first compound 0.0316 µM
[4] = second compound 0.1 µM, first compound 0.1 µM
[5] = second compound 0.316 µM, first compound 0.00316 µM
[6] = second compound 0.316 µM, first compound 0.01 µM
[7] = second compound 0.316 µM, first compound 0.0316 µM
[8] = second compound 0.316 µM, first compound 0.1 µM
[9] = second compound 1 µM, first compound 0.00316 µM
[10] = second compound 1 µM, first compound 0.01 µM
[11] = second compound 1 µM, first compound 0.0316 µM
[12] = second compound 1 µM, first compound 0.1 µM
[13] = second compound 3.16 µM, first compound 0.00316 µM
[14] = second compound 3.16 µM, first compound 0.01 µM
[15] = second compound 3.16 µM, first compound 0.0316 µM
[16] = second compound 3.16 µM, first compound 0.1 µM
[17] = second compound 10 µM, first compound 0.00316 µM
[18] = second compound 10 µM, first compound 0.01 µM
[19] = second compound 10 µM, first compound 0.0316 µM
[20] = second compound 10 µM, first compound 0.1 µM
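Further: spheroids exposed to agents for seven days.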
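Wherever viability, T/C is given: percent of DMSO vehicle control luminescence viability.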

Nc1ccn(C2OC(CO)C(O)C2(F)F)c(=O)n1 (stereo not given) + NC1CC1c1ccc(-c2cccc(O)c2)cc1
inactive: viability, T/C (second compound 0.1 µM, first compound 0.000949 µM) 86.9% | viability, T/C (second compound 0.1 µM, first compound 0.003 µM) 86.4% | viability, T/C (second compound 0.1 µM, first compound 0.00949 µM) 84% | viability, T/C (second compound 0.1 µM, first compound 0.03 µM) 66.8% | viability, T/C (second compound 0.1 µM, first compound 0.0949 µM) 42.8% | viability, T/C (second compound 0.1 µM, first compound 0.3 µM) 23.4% | viability, T/C (second compound 0.316 µM, first compound 0.000949 µM) 83.2% | viability, T/C (second compound 0.316 µM, first compound 0.003 µM) 89.1% | viability, T/C (second compound 0.316 µM, first compound 0.00949 µM) 79.1% | viability, T/C (second compound 0.316 µM, first compound 0.03 µM) 66% | viability, T/C (second compound 0.316 µM, first compound 0.0949 µM) 44.9% | viability, T/C (second compound 0.316 µM, first compound 0.3 µM) 24.9% | viability, T/C (second compound 1 µM, first compound 0.000949 µM) 90.8% | viability, T/C (second compound 1 µM, first compound 0.003 µM) 84% | viability, T/C (second compound 1 µM, first compound 0.00949 µM) 87.3% | viability, T/C (second compound 1 µM, first compound 0.03 µM) 63.3% | viability, T/C (second compound 1 µM, first compound 0.0949 µM) 45.8% | viability, T/C (second compound 1 µM, first compound 0.3 µM) 26.5% | viability, T/C (second compound 3.16 µM, first compound 0.000949 µM) 90.1% | viability, T/C (second compound 3.16 µM, first compound 0.003 µM) 94.8% | viability, T/C (second compound 3.16 µM, first compound 0.00949 µM) 92% | viability, T/C (second compound 3.16 µM, first compound 0.03 µM) 67.7% | viability, T/C (second compound 3.16 µM, first compound 0.0949 µM) 36.3% | viability, T/C (second compound 3.16 µM, first compound 0.3 µM) 27.5% | viability, T/C (second compound 10 µM, first compound 0.000949 µM) 97.4% | viability, T/C (second compound 10 µM, first compound 0.003 µM) 87.9% | viability, T/C (second compound 10 µM, first compound 0.00949 µM) 80.3% | viability, T/C (second compound 10 µM, first compound 0.03 µM) 52.5% | viability, T/C (second compound 10 µM, first compound 0.0949 µM) 36% | viability, T/C (second compound 10 µM, first compound 0.3 µM) 33.9%
57 nM: IC50 (second compound 3.16 µM)
70.8 nM: IC50 (second compound 0.316 µM)
66.8 nM: IC50 (second compound 0.1 µM)
36.5 nM: IC50 (second compound 10 µM)
69.9 nM: IC50 (second compound 1 µM)

CC(C)CC(NC(=O)CNC(=O)c1cc(Cl)ccc1Cl)B1OC(=O)CC(CC(=O)O)(C(=O)O)O1 (stereo not given) + NC1CCC(NC2CC2c2ccccc2)CC1
4.9 nM: IC50 (second compound 1 µM)
active: viability, T/C [2] 6.15% | viability, T/C [3] 0.37% | viability, T/C [4] 0.25% | viability, T/C [6] 4.86% | viability, T/C [7] 0.4% | viability, T/C [8] 0.15% | viability, T/C [10] 4.23% | viability, T/C [11] 0.34% | viability, T/C [12] 0.23% | viability, T/C [14] 5.7% | viability, T/C [15] 0.29% | viability, T/C [16] 0.28% | viability, T/C [18] 8.66% | viability, T/C [19] 0.32% | viability, T/C [20] 0.38%
5.38 nM: IC50 (second compound 3.16 µM)
inactive: viability, T/C (second compound 0.1 µM, first compound 0.000316 µM) 105% | viability, T/C (second compound 0.1 µM, first compound 0.001 µM) 111% | viability, T/C [1] 85.9% | viability, T/C (second compound 0.316 µM, first compound 0.000316 µM) 99.8% | viability, T/C (second compound 0.316 µM, first compound 0.001 µM) 106% | viability, T/C [5] 80.4% | viability, T/C (second compound 1 µM, first compound 0.000316 µM) 104% | viability, T/C (second compound 1 µM, first compound 0.001 µM) 99.4% | viability, T/C [9] 78.2% | viability, T/C (second compound 3.16 µM, first compound 0.000316 µM) 108% | viability, T/C (second compound 3.16 µM, first compound 0.001 µM) 111% | viability, T/C [13] 88% | viability, T/C (second compound 10 µM, first compound 0.000316 µM) 103% | viability, T/C (second compound 10 µM, first compound 0.001 µM) 96.4% | viability, T/C [17] 74.5%
5.31 nM: IC50 (second compound 0.1 µM)
5.02 nM: IC50 (second compound 0.316 µM)
4.85 nM: IC50 (second compound 10 µM)

CC1COCCN1c1cc(-c2ccnn2C)c2ccnc(-c3ccn[nH]3)c2n1 (stereo not given) + NC1CC1c1ccc(-c2cccc(O)c2)cc1
< 3.16 nM: IC50 (second compound 0.1 µM) | IC50 (second compound 0.316 µM) | IC50 (second compound 1 µM) | IC50 (second compound 3.16 µM) | IC50 (second compound 10 µM)
inactive: viability, T/C [1] 15.7% | viability, T/C [2] 16.1% | viability, T/C [3] 17.3% | viability, T/C [4] 25.2% | viability, T/C (second compound 0.1 µM, first compound 0.316 µM) 29.5% | viability, T/C (second compound 0.1 µM, first compound 1 µM) 10.9% | viability, T/C [5] 23.3% | viability, T/C [6] 16.2% | viability, T/C [7] 17.9% | viability, T/C [8] 26.1% | viability, T/C (second compound 0.316 µM, first compound 0.316 µM) 28.5% | viability, T/C (second compound 0.316 µM, first compound 1 µM) 10.6% | viability, T/C [9] 22.9% | viability, T/C [10] 19.6% | viability, T/C [11] 18.9% | viability, T/C [12] 25.4% | viability, T/C (second compound 1 µM, first compound 0.316 µM) 26.6% | viability, T/C (second compound 1 µM, first compound 1 µM) 10.6% | viability, T/C [13] 22.8% | viability, T/C [14] 19.7% | viability, T/C [15] 21.1% | viability, T/C [16] 24.9% | viability, T/C (second compound 3.16 µM, first compound 0.316 µM) 26.1% | viability, T/C (second compound 3.16 µM, first compound 1 µM) 9.32% | viability, T/C [17] 26.7% | viability, T/C [18] 22.6% | viability, T/C [19] 22.5% | viability, T/C [20] 26.9% | viability, T/C (second compound 10 µM, first compound 0.316 µM) 22.4% | viability, T/C (second compound 10 µM, first compound 1 µM) 9.48%

Reference: PubChem BioAssay AID1918937 (Molecular Pharmacology Branch, DTP, NCI, 2023)
